Test results taken from patent US20170088545A1, “CARBOXAMIDE INHIBITORS” (Norvartis AG, priority 2014, published 2017).

How the values were obtained:
[1] = biological target: Smurf-1 (Homo sapiens, UniProt Q9HCE7); assay: HECT E3 ligase autoubiquitinylation TR-FRET assay, Smurf-1; format: biochemical; settings: 45 min incubation, 8-point dose-response
Description: (§1) To determine the HECT E3 ligase selectivity of the compounds, a panel of biochemical HECT E3 ligase autoubiquitinylation assays was employed (Smurf-1, Smurf-2, WWP1, WWP2, ITCH, Nedd4, Nedd4L and E6AP). The conjugation of ubiquitin to a protein substrate is a multistep process. In an initial ATP-requiring step, a thioester bond is formed between the carboxyl terminus of ubiquitin and an internal cystein residue of the ubiquitin-activating enzyme (E1). Activated ubiquitin is then transferred to a specific cystein residue of an ubiquitin-conjugating enzyme (E2). E2s donate ubiquitin to a HECT E3 ligase (E3) from which it is transferred to the substrate protein. HECT E3 ligases can auto-ubiquitinylate. This event is detected in the TR-FRET (Time-Resolved Fluorescence Resonance Energy Transfer) assay used in this panel. The reaction mix contains E1, E2, tagged-E3, biotin-conjugated ubiquitin, the compound and ATP in a suitable buffer and is incubated for 45 minutes to allow auto-ubiquitinylation of the E3 ligase. To measure the extent of ubiquitinylated E3 ligase by TR-FRET, the donor fluorophore Europium cryptate (Eu3+ cryptate), conjugated to streptavidin which subsequently binds to biotinylated ubiquitin, and the modified allophycocyanin XL665 (HTRF® primary acceptor fluorophore) coupled to a tag-specific antibody (HA, His or GST), which recognizes the respective E3 ligase fusion proteins, are added after the reaction is complete. When these two fluorophores are brought together by a biomolecular interaction (in this case ubiquitinylation of the E3 ligase), a portion of the energy captured by the Cryptate during excitation is released through fluorescence emission at 620 nm, while the remaining energy is transferred to XL665. This energy is then released by XL665 as specific fluorescence at 665 nm. Light at 665 nm is emitted only through FRET with Europium.
(§2) Test and reference compounds are prepared at 180× [final] in 90% DMSO, and diluted 1:3 in 90% DMSO.
(§3) For the biochemical assay panel, 50 nl of the test compounds, reference compounds and buffer/DMSO control are transferred to the respective wells of a 384-well white GREINER “SMALL VOLUME” PS plate. The assay panel is run at room temperature on a Biomek FX liquid handling workstation. To the assay plates containing 50 nl compound or control solutions in 90% DMSO, 4.5 ul of E3 ligase solution were added per well, followed by 4.5 ul of the pre-incubated E1/E2/Ub mix or the pre-diluted ubiquitin (LOW control). Plates are shaken vigorously after each addition. In this assay the compound concentrations range from 3 nM to 10 uM in an 8-point dose-response curve.
(§4) After 45 min of incubation the ubiquitinylation reactions were stopped by adding 4.5 ul 2 mM NEM, immediately followed by 4.5 ul of a detection solution including the XL665-labeled antibody and the streptavidin-coupled europium to give a total volume of 18 ul. After an incubation time of 45 min in the dark, the plates are transferred into the Pherastar fluorescence reader to measure the TR-FRET signal.

[2] = biological target: Smurf-2 (Homo sapiens, UniProt Q9HAU4); assay: HECT E3 ligase autoubiquitinylation TR-FRET assay, Smurf-2; format: biochemical; settings: 45 min incubation, 8-point dose-response
Sequence of Smurf-2 (Q9HAU4 whole entry, species assumed): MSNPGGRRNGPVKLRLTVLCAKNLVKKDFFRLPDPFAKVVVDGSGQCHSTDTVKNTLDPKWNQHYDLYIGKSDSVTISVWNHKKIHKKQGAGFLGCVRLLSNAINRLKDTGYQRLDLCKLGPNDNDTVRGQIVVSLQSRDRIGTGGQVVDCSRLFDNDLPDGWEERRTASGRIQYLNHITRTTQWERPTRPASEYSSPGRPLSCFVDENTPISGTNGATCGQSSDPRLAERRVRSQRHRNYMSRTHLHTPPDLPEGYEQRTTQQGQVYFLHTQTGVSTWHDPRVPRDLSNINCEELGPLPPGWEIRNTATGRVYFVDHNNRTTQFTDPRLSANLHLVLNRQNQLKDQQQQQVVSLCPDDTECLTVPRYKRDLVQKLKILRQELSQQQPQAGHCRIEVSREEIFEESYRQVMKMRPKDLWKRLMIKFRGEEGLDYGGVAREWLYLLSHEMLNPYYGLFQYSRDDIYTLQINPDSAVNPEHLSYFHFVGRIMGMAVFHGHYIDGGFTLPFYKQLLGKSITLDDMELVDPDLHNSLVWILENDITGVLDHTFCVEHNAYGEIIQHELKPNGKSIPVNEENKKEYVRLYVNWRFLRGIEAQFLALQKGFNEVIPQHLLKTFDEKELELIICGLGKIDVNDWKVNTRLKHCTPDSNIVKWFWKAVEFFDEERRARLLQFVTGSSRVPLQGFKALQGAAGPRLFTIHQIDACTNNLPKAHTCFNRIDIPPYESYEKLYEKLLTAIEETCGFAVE
Description: as §1, §2, §3, §4

Sequence of Smurf-1 (Q9HCE7 whole entry): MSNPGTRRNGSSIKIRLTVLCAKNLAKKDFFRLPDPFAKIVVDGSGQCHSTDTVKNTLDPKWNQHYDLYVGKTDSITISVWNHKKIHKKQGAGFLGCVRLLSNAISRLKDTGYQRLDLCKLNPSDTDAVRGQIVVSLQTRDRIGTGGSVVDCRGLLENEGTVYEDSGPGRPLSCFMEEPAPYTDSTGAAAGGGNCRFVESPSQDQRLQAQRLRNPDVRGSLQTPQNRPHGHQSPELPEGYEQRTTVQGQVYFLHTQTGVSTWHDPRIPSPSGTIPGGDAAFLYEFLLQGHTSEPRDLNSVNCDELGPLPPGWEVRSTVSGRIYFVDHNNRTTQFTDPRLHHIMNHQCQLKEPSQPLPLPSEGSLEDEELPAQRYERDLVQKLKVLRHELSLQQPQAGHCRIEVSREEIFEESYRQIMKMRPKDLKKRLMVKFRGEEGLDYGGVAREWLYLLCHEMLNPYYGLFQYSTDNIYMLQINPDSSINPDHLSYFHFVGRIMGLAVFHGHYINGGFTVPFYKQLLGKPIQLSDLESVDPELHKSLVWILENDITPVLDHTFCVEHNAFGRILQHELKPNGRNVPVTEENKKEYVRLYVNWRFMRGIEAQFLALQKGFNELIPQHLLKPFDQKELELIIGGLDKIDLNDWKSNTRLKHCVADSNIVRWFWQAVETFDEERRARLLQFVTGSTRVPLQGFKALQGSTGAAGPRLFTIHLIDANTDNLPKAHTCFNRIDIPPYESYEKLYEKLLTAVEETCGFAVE

| Compound | IC50 [1] | IC50 [2] |
| --- | --- | --- |
| Cc1c(C(=O)Nc2c(C)n(C)n(C3CCCCC3)c2=O)noc1-c1ccc(Cl)cc1 [Example 049, 5-(4-Chlorophenyl)-N-(2-cyclohexyl-1,5-dimethyl-3-oxo-2,3-dihydro-1H-pyrazol-4-yl)-4-methylisoxazole-3-carboxamide] | 23.5 nM | 6750 nM |
| Cc1c(C(=O)Nc2c(C)n(C)n(C3CCCCC3)c2=O)noc1-c1ccc2occc2c1 [Example 054, 5-(Benzofuran-5-yl)-N-(2-cyclohexyl-1,5-dimethyl-3-oxo-2,3-dihydro-1H-pyrazol-4-yl)-4-methylisoxazole-3-carboxamide] | 10.8 nM | 5000 nM |
| Cc1c(C(=O)Nc2c(C)n(C)n(C3CCCCC3)c2=O)noc1-c1ccc(Cl)cc1F [Example 057, 5-(4-Chloro-2-fluorophenyl)-N-(2-cyclohexyl-1,5-dimethyl-3-oxo-2,3-dihydro-1H-pyrazol-4-yl)-4-methylisoxazole-3-carboxamide] | 24 nM | 7500 nM |
| Cc1c(C(=O)Nc2c(C)n(C)n(C3CCCCC3)c2=O)noc1-c1ccc(Cl)cc1C1CC1 [Example 069, 5-(4-Chloro-2-cyclopropylphenyl)-N-(2-cyclohexyl-1,5-dimethyl-3-oxo-2,3-dihydro-1H-pyrazol-4-yl)-4-methylisoxazole-3-carboxamide] | 5 nM | 3200 nM |
| Cc1c(C(=O)Nc2c(C)n(C)n(C3CCCCC3)c2=O)noc1-c1ccc(OCC2CC2)cc1Cl [Example 072, 5-(2-Chloro-4-(cyclopropylmethoxy)phenyl)-N-(2-cyclohexyl-1,5-dimethyl-3-oxo-2,3-dihydro-1H-pyrazol-4-yl)-4-methylisoxazole-3-carboxamide] | 98 nM | > 20200 nM |
| Cc1c(C(=O)Nc2c(C)n(C)n(C3CCCCC3)c2=O)noc1-c1cccc2c1OCCC2 [Example 075, 5-(Chroman-8-yl)-N-(2-cyclohexyl-1,5-dimethyl-3-oxo-2,3-dihydro-1H-pyrazol-4-yl)-4-methyl isoxazole-3-carboxamide] | 895 nM | > 20200 nM |
| COc1ccc(-c2onc(C(=O)Nc3c(C)n(C)n(C4CCCCC4)c3=O)c2C2CC2)c(C(F)(F)F)c1 [Example 085, N-(2-Cyclohexyl-1,5-dimethyl-3-oxo-2,3-dihydro-1H-pyrazol-4-yl)-4-cyclopropyl-5-(4-methoxy-2-(trifluoromethyl)phenyl)isoxazole-3-carboxamide] | 50.5 nM | > 20200 nM |
| COc1ccc(-c2onc(C(=O)Nc3c(C)n(C)n(C4CCCCC4)c3=O)c2C2CC2)c(F)c1 [Example 086, N-(2-Cyclohexyl-1,5-dimethyl-3-oxo-2,3-dihydro-1H-pyrazol-4-yl)-4-cyclopropyl-5-(2-fluoro-4-methoxyphenyl) isoxazole-3-carboxamide] | 260 nM | > 20200 nM |

Other lines, results leading:

| IC50 [1] | IC50 [2] | Compound |
| --- | --- | --- |
| 560 nM | > 20100 nM | COc1ccccc1-c1onc(C(=O)Nc2c(C)n(C)n(C3CCCCC3)c2=O)c1C [Example 051, N-(2-Cyclohexyl-1,5-dimethyl-3-oxo-2,3-dihydro-1H-pyrazol-4-yl)-5-(2-methoxyphenyl)-4-methylisoxazole-3-carboxamide] |
| 109 nM | > 20200 nM | Cc1c(C(=O)Nc2c(C)n(C)n(C3CCCCC3)c2=O)noc1-c1cccc(F)c1F [Example 055, N-(2-Cyclohexyl-1,5-dimethyl-3-oxo-2,3-dihydro-1H-pyrazol-4-yl)-5-(2,3-difluorophenyl)-4-methylisoxazole-3-carboxamide] |
| 965 nM | > 20200 nM | Cc1c(C(=O)Nc2c(C)n(C)n(-c3ccccc3F)c2=O)noc1-c1ccc2c(c1)CCO2 [Example 062, 5-(2,3-Dihydrobenzofuran-5-yl)-N-(2-(2-fluorophenyl)-1,5-dimethyl-3-oxo-2,3-dihydro-1H-pyrazol-4-yl)-4-methylisoxazole-3-carboxamide] |
| 33 nM | 17800 nM | COc1c(C)cccc1-c1onc(C(=O)Nc2c(C)n(C)n(C3CCCCC3)c2=O)c1C [Example 070, N-(2-Cyclohexyl-1 ,5-dimethyl-3-oxo-2,3-dihydro-1H-pyrazol-4-yl)-5-(2-methoxy-3-methylphenyl)-4-methylisoxazole-3-carboxamide] |
| 2300 nM | > 20200 nM | Cc1cc(C)c(-c2onc(C(=O)Nc3c(C)n(C)n(-c4ccccc4F)c3=O)c2C)c(C)c1 [Example 083, N-(2-(2-fluorophenyl)-1,5-dimethyl-3-oxo-2,3-dihydro-1H-pyrazol-4-yl)-5-mesityl-4-methylisoxazole-3-carboxamide] |
| 7150 nM | > 20200 nM | COc1ccccc1-c1onc(C(=O)Nc2c(C)n(C)n(-c3ccccc3F)c2=O)c1C [Example 084, N-(2-(2-fluorophenyl)-1,5-dimethyl-3-oxo-2,3-dihydro-1H-pyrazol-4-yl)-5-(2-methoxyphenyl)-4-methylisoxazole-3-carboxamide] |
